From patent US11186618B2, “Dendritic-cell-targeted peptide, fusion peptide utilizing said peptide, and vaccine utilizing said fusion peptide” (The Research Foundation for Microbial Diseases of Osaka …, priority 2016, dated 2021) come the findings set out here.

For assay [1], the system named is NeutrAvidin-specific antibody. The assay is described as follows: NeutrAvidin-specific antibody titer in sera of mice given biotinylated peptide/NeutrAvidin complex, ELISA (Test Example 12). Format: in vivo, mouse. The conditions noted are these: 5 μg as NeutrAvidin, base of tail Day 0 and Day 10, serum Day 17, IgG. The text has this: A biotinylated peptide was synthesized by linking the N-terminus of each of FL4 identified in Test Example 1, a peptide Mut 1 (amino acid sequence: ASYKAIR (SEQ ID NO: 2)) derived from FL4 of which the 1st amino acid residue was substituted by an alanine residue, a peptide Mut 2 (amino acid sequence: VAYKAIR (SEQ ID NO: 3)) derived from FL4 of which the 2nd amino acid residue was substituted by an alanine residue, a peptide Mut 3 (amino acid sequence: VSAKAIR, SEQ ID NO: 43) derived from FL4 of which the 3rd amino acid residue was substituted by an alanine residue, and a peptide Mut 4 (amino acid sequence: VSYKAAR, SEQ ID NO: 44) derived from FL4 of which the […] amino acid residue was substituted by an alanine residue to biotin. Subsequently, a biotinylated peptide/NeutrAvidin complex was produced by mixing each of the obtained biotinylated peptides and NeutrAvidin.
50 μL of physiological saline containing 5 μg of the complex or NeutrAvidin in terms of NeutrAvidin amount was administered into the base of the tail of each 7-week old C57BL/6 mouse on Day 0 and Day 10, and blood was collected on Day 17. As a control, a test was also carried out in the case where only physiological saline was administered in the same manner Meanwhile, in these tests, five mice in each group were used.
Sera were obtained from the blood collected on Day 17 and NeutrAvidin-specific antibody titer (IgG) in the sera was measured by ELISA. In FIG. 18, “NA” refers to the case of administration of NeutrAvidin, and “NA-FL4” refers to the case of administration of the biotinylated FL4/NeutrAvidin complex. Other peptides are shown in the same display format. Further, in FIG. 18, “cont” refers to the case where physiological saline was administered.
(In an ELISA, binding on a coated surface is turned into a signal by an enzyme label.)

In another assay the test system is PspA-specific antibodies. In words: PspA-specific antibody titer in sera of mice given fusion peptide, ELISA (Test Example 2). Format: in vivo, mouse. The conditions noted are these: C57BL/6 mice. Here is the method:
50 μL of physiological saline containing 1 μg of the fusion peptide or PspA in terms of PspA amount was administered into the base of the tail of each of 7-week old C57BL/6J JmsSlc mice (hereinafter sometimes abbreviated as C57BL/6 mice) on Day 0 and Day 10, and blood was collected on Day 17. As a control, a test was also carried out in the case where only physiological saline was administered in the same manner. Further, a test was also carried out in the case where 50 μL of physiological saline containing 10 μg of CpG oligodeoxynucleotide (K3 type, product name “K3 Et-Free”, product number “CN-65003” manufactured by GeneDesign Inc.) in addition to 1 μg of the fusion peptide or PspA in terms of PspA amount was administered in the same manner Meanwhile, in these tests, five mice in each group were used.
Sera were obtained from the blood collected on Day 17 and PspA-specific antibody titers (IgG, IgG1, and IgG2a) in the sera were measured by ELISA. In FIGS. 3 to 5, “PspA WT” refers to PspA, “PspA-FL4” refers to the fusion peptide in which the N-terminus of a peptide obtained by binding three amino acid sequences of FL4 directly and tandemly was linked to the C-terminus of PspA, “PspA WT+CpG” refers to the case where PspA and CpG oligodeoxynucleotide were administered. In addition, in FIGS. 3 to 5, the same meaning applies to the same display format as “PspA-FL4” and “PspA WT+CpG”. […]

The subject of a further assay is Streptococcus pneumoniae. The assay is described as follows: Streptococcus pneumoniae challenge of mice immunized with fusion peptide (Test Example 3). Format: in vivo. The protocol:
The following test was carried out by using a fusion peptide (FL4-PspA, amino acid sequence: [Amino acid sequence of PspA]-[VSYKAIR; SEQ ID NO: 1]-[VSYKAIR; SEQ ID NO: 1]-[VSYKAIR; SEQ ID NO: 1]) that was prepared in Test Example 2, by linking the N-terminus of a peptide obtained by binding three amino acid sequences of FL4 directly and tandemly to the C-terminus of PspA.
Immunity induction was carried out by administering 50 μL of physiological saline containing 1 μg of FL4-PspA or PspA in terms of PspA amount into the base of the tail of each of 7-week old C57BL/6 mice on Day 0 and Day 10. Then, intranasal administration (one of the nostrils of 15 μL) of Streptococcus pneumoniae (1.7×10^9 cfu/ml: […]) was performed on Day 18, and the body weight and survival rate of each mouse after Streptococcus pneumoniae administration were determined. In addition, as a control, a test was also carried out in the case where only physiological saline was administered in the same manner without conducting immunization. Further, a test was also carried out in the case where 50 μL of physiological saline containing 10 μg of CpG oligodeoxynucleotide (K3 type, product name “K3 Et-Free”, product number “CN-65003” manufactured by GeneDesign Inc.) in addition to 1 μg of FL4-PspA or PspA in terms of PspA amount was administered in the same manner Meanwhile, in these tests, five mice in each group were used.
Meanwhile, in FIG. 6, the day on which Streptococcus pneumoniae was administered is shown as Day 0. In addition, the meanings of the abbreviations in FIG. 6 are as indicated in the column of Test Example 2 above.

Assay [2] has as its system dendritic cells contained in splenocytes. The assay is described as follows: Binding of phage clones to dendritic cells contained in splenocytes, flow cytometry (Test Example 6). Format: cell-based, mouse. The conditions noted are these: phage clone 1.6×10^10 pfu/mL, 1×10^5 splenocytes. The protocol:
(§1) Specifically, 1×10^5 splenocytes collected from mice and 1.6×10^10 pfu/mL of each phage clone were mixed, and the biotinylated antibody to the phage was added. Further, streptavidin modified with a fluorescent dye was added, and the binding of the phage to splenocytes was evaluated by flow cytometric analysis.

Assay [3] concerns CD4^+ T cells contained in splenocytes. The assay is described as follows: Binding of phage clones to CD4+ T cells contained in splenocytes, flow cytometry (Test Example 6). Format: cell-based, mouse. The conditions noted are these: phage clone 1.6×10^10 pfu/mL, 1×10^5 splenocytes. The protocol: as §1
(In general: In flow cytometry, cells or beads pass a laser one at a time.)

Assay [4] relates to mouse-derived dendritic cells (FL-DCs). The assay is described as follows: Binding of phage clones to mouse-derived dendritic cells by flow cytometric analysis (Test Example 1). The class given is cell-based. The conditions noted are these: phage clone displaying the peptide, 1.6×10^10 pfu/mL, 1×10^5 mouse-derived dendritic cells, flow cytometry with antibody against the phage. Here is the method:
Meanwhile, in the following test examples, unless otherwise indicated, as mouse-derived dendritic cells, dendritic cells (FL-DCs) that were obtained by culturing murine bone marrow cells in the presence of Flt3-L (final concentration 100 ng/ml) for 1 week to induce differentiation were used. In addition, in the following test examples, FL-DCs were analyzed in some cases separately for Plasmacytoid DCs (pDCs), CD11b positive dendritic cells (CD11b^+ DCs), and CD11b negative dendritic cells (CD11b^− DCs). Among the mouse-derived dendritic cells, pDCs is a group of CD11c positive and B220 positive cells; CD11b^+ DCs is a group of CD11c positive, B220 negative and CD11b positive cells among mouse-derived dendritic cells; CD11b^− DCs is a group of CD11c positive, B220 negative, and CD11b negative cells among mouse-derived dendritic cells.
Each of phages recovered by three panning operations was monocloned and amplified. 1×10^5 mouse-derived dendritic cells and 1.6×10^10 pfu/mL of each phage clone were mixed, and then the phage was assayed for the binding to dendritic cells by flow cytometric analysis using an antibody against the phage.
About 60 phage clones obtained were subjected to flow cytometric analysis as described above. As a result, 37 clones shown in Table 1 were identified as clones capable of binding to dendritic cells. […]

For assay [5], the system named is antigen-specific CD8^+ CTLs. The assay is described as follows: Tetramer assay on regional lymph nodes, CD8+ CTL inducibility (Test Example 8). Format: in vivo, mouse. The conditions noted are these: co-administered with CpG oligodeoxynucleotide, 50 μg in terms of SL8 subcutaneously into the ears Day 0, lymph nodes Day 7. Here is the method:
A fusion peptide (SL8-FL4) was prepared by linking the N-terminus of the peptide consisting of the amino acid sequence of FL4 to the C-terminus of SL8 (SIINFEKL; SEQ ID NO: 40) which is an MHC class I epitope peptide in chicken ovalbumin (OVA). Specifically, the amino acid sequence of the fusion peptide is [Amino acid sequence of SL8 (SIINFEKL; SEQ ID NO: 40)]-[VSYKAIR; SEQ ID NO: 1]. The production method of the fusion peptide was the same as that of PspA-FL4 except that a DNA molecule encoding SL8 was used. In addition, each of peptide-fusion bodies (SL8-F8 and SL8-FL4Scr) in which the peptide was fused with SL8 was prepared using each of FL8 and the scramble peptide of FL4 (FL4Scr, amino acid sequence: YRSIVKA, SEQ ID NO: 41) in the same manner. […]
The tetramer assay was carried out as follows. Lymphocytes were recovered from the regional lymph nodes, were stained with fluorescently labeled antibodies against CD44 and CD8 and a fluorescently labeled tetramer recognizing the SL8 peptide presented on H-2K^b, then were analyzed using a flow cytometer.

The test system of a further assay is EG7 cells. The assay is described as follows: Tumor size in mice transplanted with EG7 cells (Test Example 9). Format: in vivo, mouse. The conditions noted are these: EG7 tumor bearing C57BL/6 mice, 50 μg as SL8 with 50 μg CpG oligodeoxynucleotide subcutaneously into the ears, compared with physiological saline. The protocol:
In this test, whether the regression effect of cancer was observed by SL8-specific CD8^+ CTLs induced by SL8-FL4 was evaluated. In this test, EG7 cells (cancer cells expressing OVA protein in EL4 cells derived from thymoma of C57BL/6 mouse) were used as cancer cells. Specific test methods are as follows.
1 (10^6 EG7 cells were transplanted into the abdomen of 7-week old C57BL/6 mice to prepare tumor bearing mice. 50 μL of physiological saline containing 50 μg of SL8-FL4 in terms of SL8 amount and 50 μg of CpG oligodeoxynucleotide (K3 type, product name “K3 Et-Free”, product number “CN-65003” manufactured by GeneDesign Inc.) was administered subcutaneously into the ears of mice after EG7 cells were transplanted and the tumor diameter reached about 5 mm (about 5 days after transplantation). Thereafter, tumor size was measured over time while breeding the mice. In addition, similar tests were carried out with regard to the case where 50 μL of physiological saline containing 50 μg SL8 and 50 μg of CpG oligodeoxynucleotide was administered, and the case where only physiological saline was administered (control). Meanwhile, in these tests, five mice in each group were used.

Turning to “ASYKAIR (Amino acid sequence of motif sequence) [Mut 1]”, in assay [1], the NeutrAvidin-specific antibody production result is on record as “excellent production ability”.

As for “[Amino acid sequence of PspA]-[VSYKAIR; SEQ ID NO: 1]-[VSYKAIR; SEQ ID NO: 1]-[VSYKAIR; SEQ ID NO: 1] [PspA-FL4]”, the “production ability of PspA-specific antibodies” value in the assay with PspA-specific antibodies (1 μg in terms of PspA into base of tail Day 0 and Day 10, serum Day 17, ELISA) was “remarkably improve”. Further, the “PspA-specific antibody titer compared with PspA and adjuvant (CpG oligodeoxynucleotide) administered at the same time” value in the assay on PspA-specific antibodies (fusion peptide without adjuvant, serum Day 17) is given as “remarkably higher”. The “body weight after administration of Streptococcus pneumoniae” value in the assay with Streptococcus pneumoniae (C57BL/6 mice immunized Day 0 and Day 10 (1 μg as PspA), intranasal 5.1×10^7 cfu/mouse Day 18) is recorded as “no decrease in body weight was observed”. Also, the infection protective ability result with Streptococcus pneumoniae (C57BL/6 mice, Streptococcus pneumoniae intranasal challenge) is recorded as “strong infection protective ability”. For the same substance, the survival rate in the assay with Streptococcus pneumoniae (after 10 days from the administration of Streptococcus pneumoniae, C57BL/6 mice) amounted to 100%.

In the case of “GGSKPVR (phage display; displayed peptide) [FL8]”, the “binding of phage clone to dendritic cells contained in splenocytes” value in assay [2] is given as “bind to all dendritic cells contained in splenocytes”. For the same substance, the “binding of phage clone to CD4+ T cells contained in splenocytes” value in assay [3] is “also bound to CD4^+ T cells contained in splenocytes”. Besides, in assay [4], the “binding of phage clone to dendritic cells” value is recorded as “binding to bone marrow-derived dendritic cells was confirmed”.

As for “VAYKAIR (Amino acid sequence of motif sequence) [Mut 2]”, in assay [1], the NeutrAvidin-specific antibody production result is “excellent production ability”.

Take VSYKAAR (Mut 4 peptide): the NeutrAvidin-specific antibody production result in assay [1] was “an excellent antibody-producing ability is recognized unlike the case where each of the amino acid sequences of Mut 3 and Mut 4 is contained”.

SIINFEKL [SL8, reference compound]: the “induction of antigen-specific CD8+ CTLs (tetramer assay, regional lymph nodes)” value in assay [5] is recorded as “could not be induced”. In addition, the tumor regression effects result in the assay on EG7 cells is recorded as “some tumor regression effects”.

As to VSAKAIR (Mut3 peptide) [Mut 3], the NeutrAvidin-specific antibody production result in assay [1] was “an excellent antibody-producing ability is recognized unlike the case where each of the amino acid sequences of Mut 3 and Mut 4 is contained”.
